Reference: patent publication US6372719B1, “ανβ3 integrin antagonists in combination with chemotherapeutic agents” (priority 1998, dated 2002)

How the values were obtained:
[1] = test system: M21 human melanoma; experiment: Tumor growth inhibition, M21 human melanoma in mice; assay type: in vivo, SCID mice; settings: cyclophosphamide 150 mg/kg ip on days 14, 16 and 18
Protocol: In this model, cyclophosphamide was administered (150 mg/kg;ip) on days 14, 16 and 18, and XII (10 mg/kg, BID, PO) was administered continuously after the chemotherapeutic beginning on day 21.

[2] = test system: LLC tumor; experiment: Tumor growth inhibition, LLC tumor in mice
Protocol: Tumor cells for implantation were taken from cells either grown in tissue culture (Leydig, M21) or serially passaged as tumors in mice and prepared as tumor brei (LLC, PC-3) by methodology known in the art. Mice were injected subcutaneously in the proximal dorsal midline with 5×10^6 tumor cells and administration of test αvβ3 integrin antagonist compound was initiated the evening of the same day either prior to the chemotherapeutic agent, delayed and on the same day as the chemotherapeutic agent or delayed and following the chemotherapeutic agent. Tumor volumes were measured at intervals over the course of the experiments. Tumors were measured with a vernier caliper and volumes were determined using the formula for the volume of a cylinder: tumor volume=width^2×length×0.52. Blood was routinely drawn, for serum calcium determination and plasma drug concentration, 6 hours post-dosing on day 4 or 5 and again 12 hours post-dosing on the day of sacrifice. On the final day of the experiment, tumors were dissected free and weighed. Calcium concentrations of serum samples were determined calorimetrically using a clinical diagnostic kit. The data are expressed as the mean +/− SEM. Student's and Mann-Whitney tests were used to assess differences between means or medians using the InStat software package.

[3] = test system: Rice Leydig tumor cells; experiment: Tumor growth inhibition, Rice Leydig tumor in SCID mice
Protocol: Tumor cells for implantation were taken from cells either grown in tissue culture (Leydig, M21) or serially passaged as tumors in mice and prepared as tumor brei (LLC, PC-3) by methodology known in the art. Mice were injected subcutaneously in the proximal dorsal midline with 5×10^6 tumor cells and administration of test αvβ3 integrin antagonist compound was initiated the evening of the same day either prior to the chemotherapeutic agent, delayed and on the same day as the chemotherapeutic agent or delayed and following the chemotherapeutic agent. Tumor volumes were measured at intervals over the course of the experiments. Tumors were measured with a vernier caliper and volumes were determined using the formula for the volume of a cylinder: tumor volume=width^2×length×0.52. […] On the final day of the experiment, tumors were dissected free and weighed. […] The data are expressed as the mean +/− SEM. Student's and Mann-Whitney tests were used to assess differences between means or medians using the InStat software package.

[4] = cisplatin 10 mg/kg ip day 5, XII at 10 mg/kg

| SMILES | Inhibition of growth of M21 tumors [1] | Median survival time [2, 4] [days] | Time to develop a tumor >500 mm^3 [2, 4] [days] | Effect on growth of the LLC tumor ([2]; cisplatin single ip dose 10 mg/kg on day 5, XII 1 and 10 mg/kg, oral, BID from day 1) | Tumor growth inhibition ([3]; cisplatin at maximum tolerated dose, XII 10 mg/kg PO, compared to control-treated mice) | Effect on survival time ([3]; tumor bearing SCID mice) |
| --- | --- | --- | --- | --- | --- | --- |
| O=P1(N(CCCl)CCCl)NCCCO1 (stereo not drawn) [Cyclophosphamide, cyclophosphamide] | significantly inhibited |  |  |  |  |  |
| N.N.[Cl][Pt][Cl] [Cisplatin, cisplatin] |  | 33 | 22.4 | significantly retarded | approximately 50% | little effect |
